Data published in PubChem BioAssay AID588662 (The Scripps Research Institute Molecular Screening Center, 2011).
Activity calls are given as the source filed them.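 How the source made its calls: active means p38 protein level shifted at least 30% from solvent-only control, either down or up; inactive means shift under 30% either way.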

Biological target: Mitogen-activated protein kinase 14 (Homo sapiens) (UniProt Q16539)
Assay: altered p38 MAPK protein abundance – SW620 cells, chemiluminescent western blot, powder samples, counter-screen for KLF5 inhibitor project, late-stage follow-up (AID 588662)
Settings: 24 h, at 10 µM

Chain of Mitogen-activated protein kinase 14 (Homo sapiens) (Q16539 whole entry, looked up): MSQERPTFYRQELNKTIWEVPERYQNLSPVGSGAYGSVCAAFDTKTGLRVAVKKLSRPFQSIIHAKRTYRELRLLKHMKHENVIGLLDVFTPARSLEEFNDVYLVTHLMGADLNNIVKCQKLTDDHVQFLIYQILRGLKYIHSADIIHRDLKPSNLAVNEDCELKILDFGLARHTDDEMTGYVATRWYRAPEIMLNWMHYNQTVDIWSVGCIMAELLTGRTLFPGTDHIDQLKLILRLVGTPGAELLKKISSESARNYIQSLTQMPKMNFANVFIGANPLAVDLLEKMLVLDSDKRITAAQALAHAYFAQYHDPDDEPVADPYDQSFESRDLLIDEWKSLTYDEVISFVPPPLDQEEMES

| SMILES | inhibition |
| --- | --- |
| CN(C(=O)CNC(=O)/C=C/c1cccc(Cl)c1)C1CCS(=O)(=O)CC1 | -41.1% |
| CN(C(=O)COC(=O)/C=C/c1cccc([N+](=O)[O-])c1)C1CCS(=O)(=O)C1 (stereo not drawn) | -3.03% (inactive) |
| CN(C(=O)CNC(=O)/C=C/c1cccc(Cl)c1)C1CCS(=O)(=O)C1 (stereo not drawn) | 1.69% (inactive) |
